Measurements: patent US9617289B2, “RSV antiviral compounds” (JANSSEN R&D IRELAND, priority 2012, dated 2017)
Where a name gives a salt, the structure may show the parent alone. Read-outs that look alike come from different tables or passages of the source.

Columns and labels:
[1] = test system: rgRSV224 virus; test: Antiviral activity: inhibition of rgRSV224 (GFP-expressing RSV) replication in HeLa cells; format: cell-based, respiratory syncytial virus; conditions: for EC50: human respiratory syncytial virus, HeLa, 72 h
Procedure, shortened: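 HeLa cells infected with GFP-expressing rgRSV224 at MOI 0.02 alongside 4-fold compound dilutions in duplicate (0.5% DMSO). Incubated 3 days at 37 °C; EC50 taken as 50% inhibition of GFP expression by laser microscopy. CC50 measured in parallel uninfected cells by ATP content after 3 days; SI = CC50/EC50.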

[2] = read-out: pEC50, rgRSV224 (MOI=0.02) in HeLa cells, GFP expression three days post-virus exposure (converted)
[3] = read-out: RSV-wt_pEC50, rgRSV224 (MOI=0.02) in HeLa cells, GFP expression three days post-virus exposure

SMILES | melting point [°C] | EC50 [1, 2] [nM] | pEC50 ([1]; rgRSV224 (MOI=0.02) in HeLa cells, GFP expression three days post-virus exposure) | EC50 [1, 3] [nM]
N#CCCCn1c(CN2C(=O)C3(CCNCC3)c3ccncc32)cc2cc(Cl)ccc21 (as salt: hydrochloride) [Compound 78, 4-(5-chloro-2-((2′-oxospiro[piperidine-4,3′-pyrrolo[2,3-c]-pyridin]-1′(2′H)-yl)methyl)-1H-indol-1-yl)butanenitrile hydrochloride] | 82.02 |  |  | 
CS(=O)(=O)CCCn1c(CN2C(=O)C3(CN(CC(F)(F)F)C3)c3ccccc32)nc2cc(Cl)ccc21 [Compound 9, 1′-[[5-chloro-1-(3-methylsulfonylpropyl)benzimidazol-2-yl]methyl]-1-(2,2,2-trifluoroethyl)spiro[azetidine-3,3′-indoline]-2′-one] | 200.68 | 0.398 |  | 
CS(=O)(=O)CCCn1c(CN2C(=O)C3(CCOCC3)c3ccc(F)cc32)nc2cc(Cl)ccc21 [Compound 10, 1-((5-chloro-1-(3-(methylsulfonyl)propyl)-1H-benzo[d]-imidazol-2-yl)methyl)-6-fluoro-2′,3′,5′,6′-tetrahydro-spiro[indoline-3,4′-pyran]-2-one] | 207.14 | 2 |  | 
CS(=O)(=O)CCCn1c(CN2C(=O)C3(CC(O)C3)c3ccccc32)nc2cc(Cl)ccc21 [Compound 11, (3S)-1′-({5-chloro-1-[3-(methylsulfonyl)propyl]-1H-benzimidazol-2-yl}methyl)-3-hydroxyspiro[cyclobutane-1,3′-indol]-2′(1′H)-one] | 232.91 | 0.398 |  | 
CS(=O)(=O)CCCn1c(CN2C(=O)C3(CC(O)C3)c3ccccc32)nc2cc(Cl)ccc21 [Compound 12, (3R)-1′-({5-chloro-1-[3-(methylsulfonyl)propyl]-1H-benzimidazol-2-yl}methyl)-3-hydroxyspiro[cyclobutane-1,3′-indol]-2′(1′H)-one] | 209.84 |  | 9.3 | 
CC(C)C(=O)N1CC2(C1)C(=O)N(Cc1nc3cc(Cl)ccc3n1CCCS(C)(=O)=O)c1ccccc12 [Compound 28, 1′-({5-chloro-1-[3-(methylsulfonyl)propyl]-1H-benzimidazol-2-yl}methyl)-1-(2-methylpropanoyl)-spiro[azetidine-3,3′-indol]-2′(1′H)-one] | 133.12 | < 0.158 |  | 
CS(=O)(=O)CCCn1c(CN2C(=O)C3(CN(S(=O)(=O)C4CC4)C3)c3ccccc32)nc2cc(Cl)ccc21 [Compound 29, 1′-({5-chloro-1-[3-(methylsulfonyl)propyl]-1H-benzimidazol-2-yl}methyl)-1-(cyclopropylsulfonyl)-spiro[azetidine-3,3′-indol]-2′(1′H)-one] | 191.15 | < 0.158 |  | 
CC(=O)N1CC2(C1)C(=O)N(Cc1nc3cc(Cl)ccc3n1CCCS(C)(=O)=O)c1ccccc12 [Compound 30, 1-acetyl-1′-({5-chloro-1-[3-(methylsulfonyl)propyl]-1H-benzimidazol-2-yl}methyl)spiro[azetidine-3,3′-indol]-2′(1′H)-one] | 221.24 | 0.251 |  | 
CS(=O)(=O)CCCn1c(CN2C(=O)C3(CN(C(=O)C(F)(F)F)C3)c3ccccc32)nc2cc(Cl)ccc21 [Compound 31, 1-({5-chloro-1-[3-(methylsulfonyl)propyl]-1H-benzimidazol-2-yl}methyl)-1-(trifluoroacetyl)spiro-[azetidine-3,3′-indol]-2′(1′H)-one] | 249.58 | 3.16 |  | 
CC(=O)N1CCC2(CC1)C(=O)N(Cc1nc3cc(Cl)ccc3n1CCCS(C)(=O)=O)c1ccccc12 [Compound 32, 1′-acetyl-1-({5-chloro-1-[3-(methylsulfonyl)propyl]-1H-benzimidazol-2-yl}methyl)spiro[indole-3,4′-piperidin]-2(1H)-one] | 247.98 | 0.631 |  | 
CS(=O)(=O)CCCn1c(CN2C(=O)C3(CCN(S(=O)(=O)c4ccc(F)cc4)CC3)c3ccccc32)nc2cc(Cl)ccc21 [Compound 34, 1-({5-chloro-1-[3-(methylsulfonyl)propyl]-1H-benzimidazol-2-yl}methyl)-1′-[(4-fluorophenyl)-sulfonyl]spiro[indole-3,4′-piperidin]-2(1H)-one] | 183.97 | 1.26 |  | 
CS(=O)(=O)CCCn1c(CN2C(=O)C3(CCN(S(=O)(=O)C4CC4)CC3)c3ccccc32)nc2cc(Cl)ccc21 [Compound 35, 1-({5-chloro-1-[3-(methylsulfonyl)propyl]-1H-benzimidazol-2-yl}methyl)-1′-(cyclopropylsulfonyl)-spiro[indole-3,4′-piperidin]-2(1H)-one] | 194.85 | 0.794 |  | 
COc1ccc(S(=O)(=O)N2CCC3(CC2)C(=O)N(Cc2nc4cc(Cl)ccc4n2CCCS(C)(=O)=O)c2ccccc23)cc1 [Compound 36, 1-({5-chloro-1-[3-(methylsulfonyl)propyl]-1H-benzimidazol-2-yl}methyl)-1′-[(4-methoxyphenyl)-sulfonyl]spiro[indole-3,4′-piperidin]-2(1H)-one] | 237.33 | 0.251 |  | 
COC(=O)N1CCC2(CC1)C(=O)N(Cc1cc3cc(Cl)ccc3n1CCCS(C)(=O)=O)c1cnccc12 [Compound 55] | 234.28 | 0.0501 |  | 
CC(=O)N1CCC2(CC1)C(=O)N(Cc1cc3cc(Cl)ccc3n1CCCS(C)(=O)=O)c1cnccc12 [Compound 56, 1-acetyl-1′-({5-chloro-1-[3-(methylsulfonyl)propyl]-1H-indol-2-yl}methyl)spiro[piperidine-4,3′-pyrrolo[2,3-c]pyridin]-2′(1′H)-one] | 258.32 | 0.316 |  | 
CC(=O)N1CC2(C1)C(=O)N(Cc1cc3cc(Cl)ccc3n1CCCC#N)c1ccccc12 [Compound 62, 4-{2-[(1-acetyl-2′-oxospiro[azetidine-3,3′-indol]-1′(2′H)-yl)-methyl]-5-chloro-1H-indol-l-yl}butanenitrile] | 195.25 | 1 |  | 
O=C1CC2(C1)C(=O)N(Cc1nc3cc(Cl)ccc3n1CCCCF)c1ccccc12 [Compound 158, 1-{[5-Chloro-1-(4-fluorobutyl)-1H-benzimidazol-2-yl]methyl}-3H-spiro[cyclobutane-1,3′-indole]-2′,3(1′H)-dione] |  |  |  | 0.575
O=C1N(Cc2cc3cc(Cl)ccc3n2CCCCF)c2cnccc2C12CCNCC2 [Compound 162] |  |  |  | 4.57
CC(C)(C)OC(=O)N1CC2(C1)C(=O)N(Cc1cc3cc(Cl)ccc3n1CCCS(C)(=O)=O)c1ccccc12 [Compound 163, tert-Butyl 1′-({5-chloro-1-[3-(methylsulfonyl)propyl]-1H-indol-2-yl}methyl)-2′-oxo-1′,2′-dihydro-1H-spiro[azetidine-3,3′-indole]-1-carboxylate] |  |  |  | 0.2
N#CCCCn1c(CN2C(=O)C3(CN(C(=O)C(O)CO)C3)c3ccccc32)cc2cc(Cl)ccc21 (stereo not drawn) [Compound 165, 4-(5-chloro-2-((1-(2,3-dihydroxypropanoyl)-2′-oxospiro[azetidine-3,3′-indolin]-1′-yl)methyl)-1H-indol-1-yl)butanenitrile] |  |  |  | 0.145
O=C(C(O)CO)N1CCC2(CC1)C(=O)N(Cc1cc3cc(Cl)ccc3n1CCCCF)c1cnccc12 (stereo not drawn) [Compound 167, 1′-{[5-Chloro-1-(4-fluorobutyl)-1H-indol-2-yl]methyl}-1-(2,3-dihydroxypropanoyl)spiro[piperidine-4,3′-pyrrolo[2,3-c]pyridin]-2′(1′H)-one] |  |  |  | 0.123
CNC(=O)O[C@H]1C[C@@]2(C1)C(=O)N(Cc1nc3cc(Cl)ccc3n1CCCC#N)c1ccccc12 [Compound 168, (1r,3r)-1′-((5-chloro-1-(3-cyanopropyl)-1H-benzo[d]imidazol-2-yl)methyl)-2′-oxospiro[cyclobutane-1,3′-indolin]-3-yl methylcarbamate] |  |  |  | 0.0347
CC(=O)NS(=O)(=O)N1CC2(C1)C(=O)N(Cc1nc3cc(Cl)ccc3n1CCCC#N)c1ccccc12 [Compound 170, N-[(1′-{[5-Chloro-1-(3-cyanopropyl)-1H-benzimidazol-2-yl]methyl}-2′-oxo-1′,2′-dihydro-1H-spiro[azetidine-3,3′-indol]-1-yl)sulfonyl]acetamide] |  |  |  | 0.269
N#CCCCn1c(CN2c3ccccc3[C@]3(C[C@@H](OC(=O)NC4CC4)C3)C2=O)nc2cc(Cl)ccc21 [Compound 173, (1r,3r)-1′-((5-chloro-1-(3-cyanopropyl)-1H-benzo[d]imidazol-2-yl)methyl)-2′-oxospiro[cyclobutane-1,3′-indolin]-3-yl cyclopropylcarbamate] |  |  |  | 0.0224
CC1CC2(CC(C)O1)C(=O)N(Cc1nc3cc(Cl)ccc3n1CCCS(C)(=O)=O)c1cnccc12 (stereo not drawn) [Compound 174, 1′-({5-Chloro-1-[3-(methylsulfonyl)propyl]-1H-benzimidazol-2-yl}methyl)-2,6-dimethyl-2,3,5,6-tetrahydrospiro[pyran-4,3′-pyrrolo[2,3-c]pyridin]-2′(1′H)-one] |  |  |  | 17.8
CC(C)(O)C(=O)N1CC2(C1)C(=O)N(Cc1nc3cc(Cl)ccc3n1CCCCO)c1ccccc12 [Compound 175, 1′-{[5-Chloro-1-(4-hydroxybutyl)-1H-benzimidazol-2-yl]methyl}-1-(2-hydroxy-2-methylpropanoyl)spiro[azetidine-3,3′-indol]-2′(1′H)-one] |  |  |  | 0.0741
O=C(NS(=O)(=O)N1CCC2(CC1)C(=O)N(Cc1cc3cc(Cl)ccc3n1CCCCF)c1cnccc12)C1CC1 [Compound 184, N-[(1′-{[5-Chloro-1-(4-fluorobutyl)-1H-indol-2-yl]methyl}-2′-oxo-1′,2′-dihydro-1H-spiro[piperidine-4,3′-pyrrolo[2,3-c]pyridin]-1-yl)sulfonyl]cyclopropanecarboxamide] |  |  |  | 0.219
